Where “and” joins values, the source holds several entries; their conditions need not be identical. Equal values may be shown once.
Biological target: T1, human p38 kinase alpha (Homo sapiens, UniProt Q16539)
T1 construct: The coding region of the human p38 cDNA was obtained by PCR-amplification from RNA isolated from the human monocyte cell line THP.1; GST (N); made in house; host or cells: E. coli DH10B
Assay: p38 kinase in vitro assay
Format: biochemical
Details: Table I; average of n trials, n=1 if not reported; read-out: p38 Alpha IC50
Description: The ability of compounds to inhibit human p38 kinase alpha was evaluated using two in vitro assay methods. In the first method, activated human p38 kinase alpha phosphorylates a biotinylated substrate, PHAS-I (phosphorylated heat and acid stable protein-insulin inducible), in the presence of gamma ^32p-ATP (^32P-ATP). PHAS-I was biotinylated prior to the assay and provides a means of capturing the substrate, which is phosphorylated during the assay. p38 Kinase was activated by MKK6. Compounds were tested in 10 fold serial dilutions over the range of 100 μM to 0,001 μM using 1% DMSO. Each concentration of inhibitor was tested in triplicate.
All reactions were carried out in 96 well polypropylene plates. Each reaction well contained 25 mM HEPES pH 7.5, 10 mM magnesium acetate and 50 μM unlabeled ATP. […] Activated human p38 kinase alpha was used at 1 μg per 50 μl reaction volume representing a final concentration of 0.3 μM. Gamma ^32P-ATP was used to follow the phosphorylation of PHAS-I. ^32P-ATP has a specific activity of 3000 Ci/mmol and was used at 1.2 μCi per 50 μl reaction volume. The reaction proceeded either for one hour or overnight at 30° C.
Following incubation, 20 μl of reaction mixture was transferred to a high capacity streptavidin coated filter plate (SAM-streptavidin-matrix, Promega) prewetted with phosphate buffered saline, The transferred reaction mix was allowed to contact the streptavidin membrane of the Promega plate for 1-2 minutes. […] Filter plates were air-dried and 20 μl of scintillant was added. The plates were sealed and counted.
A second assay format was also employed that is based on p38 kinase alpha induced phosphorylation of EGFRP (epidermal growth factor receptor peptide, a 21 mer) in the presence ^33P-ATP. Compounds were tested in 10 fold serial dilutions over the range of 100 μM to 0.001 μM in 1% DMSO. Each concentration of inhibitor was tested in triplicate. Compounds were evaluated in 50 μl reaction volumes in the presence of 25 mM Hepes pH 7.5, 10 mM magnesium acetate, 4% glycerol, 0.4% bovine serum albumin, 0.4 mM DTT, 50 μM unlabeled ATP, 25 μg EGFRP (200 μM), and 0.05 μCi ^33p-ATP. Reactions were initiated by addition of 0.09 μg of activated, purified human GST-p38 kinase alpha. Activation was carried out using GST-MKK6 (5:1,p38:MKK6) for one hour at 30° C. in the presence of 50 μM ATP. Following incubation for 60 minutes at room temperature, the reaction was stopped by addition of 150 μl of AG 1×8 resin in 900 mM sodium formate buffer, pH 3.0 (1 volume resin to 2 volumes buffer). The mixture was mixed three times with pipetting and the resin was allowed to settle. A total of 50 μl of clarified solution head volume was transferred from the reaction wells to Microlite-2 plates. 150 μl of Microscint 40 was then added to each well of the Microlite plate, and the plate was sealed, mixed, and counted.

T1 sequence (Q16539 whole entry): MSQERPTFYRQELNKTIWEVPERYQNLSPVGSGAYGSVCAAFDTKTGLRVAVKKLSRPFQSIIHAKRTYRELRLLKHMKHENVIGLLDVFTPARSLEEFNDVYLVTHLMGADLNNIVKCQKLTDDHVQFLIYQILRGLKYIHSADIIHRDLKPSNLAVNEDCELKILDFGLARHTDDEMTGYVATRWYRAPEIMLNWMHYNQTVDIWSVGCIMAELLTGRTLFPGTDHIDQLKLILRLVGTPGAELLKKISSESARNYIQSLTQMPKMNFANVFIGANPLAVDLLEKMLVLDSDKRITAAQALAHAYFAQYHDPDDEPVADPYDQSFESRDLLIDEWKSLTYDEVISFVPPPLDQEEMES

| Compound | IC50 [nM] |
| --- | --- |
| O=C(O)c1ccc(Cn2ccc(OCc3ccccc3)c(Br)c2=O)cc1 [T] | 423 |
| O=c1c(Cl)c(OCc2ccccc2)ccn1Cc1ccccc1 [X] | 450 |
| N/C(=N/O)c1ccc(Cn2ccc(OCc3ccccc3)c(Br)c2=O)cc1 [Y] | 489 |

Results, then the molecule that gave them:

| IC50 [nM] | Compound |
| --- | --- |
| 219 | Cc1cc(OCc2ccccc2)c(Br)c(=O)n1Cc1ccccc1 [K] |
| 294 | COc1cccc(C)c1-n1c(C)cc(OCc2ccc(F)cc2F)c(Br)c1=O [L] |
| 360 | O=c1c(Br)c(OCc2ccc(F)cc2F)ccn1Cc1ccccc1F [M] |
| 403 | Cc1cc(OCc2ccc(F)cc2)c(Br)c(=O)n1-c1c(Cl)cccc1Cl [P] |
| 365 | Cc1ccc(Cn2ccc(OCc3ccccc3)c(Br)c2=O)cc1 [Q] |
| 398 | O=c1c(Br)c(OCc2ccccc2)ccn1Cc1ccc(Cl)cc1 [R] |
| 427 | O=c1c(Br)c(OCc2ccccc2)ccn1Cc1ccccc1F [U] |
| 455 | Cc1cccc(C)c1-n1c(C)cc(OCc2ccc(F)cc2)c(Br)c1=O [V] |
| 450 | CSc1ccc(Cn2ccc(OCc3ccccc3)c(Br)c2=O)cc1 [W] |
| 507 | COC(=O)c1ccc(Cn2ccc(OCc3ccccc3)c(Br)c2=O)cc1 [Z] |

Same assay, conditions: Table II; several values in a cell = repeat determinations; read-out: p38A

| Compound | IC50 |
| --- | --- |
| O=c1c(CO)c(OCc2ccccc2)ccn1Cc1ccccc1 [NNN] | 24900 nM |
| O=c1c(Br)c(OCc2ccccc2Cl)ccn1Cc1ccccc1 [NN] | 2030 nM |
| Cc1cc(OCc2ccccc2)cc(=O)n1Cc1ccccc1 [OOOO] | 38700 nM |
| O=c1cc(OCc2ccccc2)ccn1Cc1cccc(F)c1 [PPP] | 35800 nM |
| O=c1c(Br)c(OCc2ccccc2)ccn1CCc1ccsc1 [QQQ] | 3310 nM |
| O=c1c(Br)c(OCc2ccc(Cl)cc2)ccn1CCSc1ccccc1 [RRR] | 56500 nM |
| O=c1c(Br)c(OCc2ccccc2)ccn1Cc1cccc(C(F)(F)F)c1 [SSS] | 9860 nM |
| O=c1c(Br)c(OCc2ccccc2)ccn1Cc1ccc(OCc2ccccc2)cc1 [TT] | 1450 nM |
| O=c1c(Br)c(OCc2c(Cl)cccc2Cl)ccn1Cc1ccccc1 [VV] | 14300 nM |
| O=c1cc(OCc2ccccc2Cl)ccn1Cc1ccccc1 [WWW] | 81800 nM |
| O=c1cc(OCc2cccc(Cl)c2)ccn1Cc1ccccc1 [XXX] | 51500 nM |
| O=c1c(Br)c(OCc2ccccc2)ccn1CCc1cccs1 [YYY] | 2230 nM |

Continued, values first:

| IC50 | Compound |
| --- | --- |
| 1730 nM | Cc1ccc(COc2ccn(Cc3ccccc3)c(=O)c2Br)cc1 [LL] |
| 1530 nM | O=c1c(Br)c(OCc2ccccc2)ccn1Cc1ccc(C(F)(F)F)cc1 [MMM] |
| 1380 nM | O=c1c(Br)c(OCc2ccc(Cl)cc2)ccn1Cc1ccccc1 [MM] |
| 64800 nM | O=c1cc(OCc2ccccc2)ccn1Cc1ccc(F)cc1 [NNNN] |
| 2460 nM | O=c1c(Br)c(OCc2ccc(Cl)cc2)ccn1Cc1ccc(Cl)cc1 [OO] |
| 1900 nM | O=c1c(Br)c(OCc2ccc(Cl)cc2)ccn1Cc1ccc(F)cc1 [PP] |
| 2410 nM | COc1ccc(Cn2ccc(OCc3ccc(Cl)cc3)c(Br)c2=O)cc1 [QQ] |
| 6800 nM | O=c1c(Br)c(OCc2ccc(Cl)cc2)ccn1Cc1cccc(Cl)c1 [RR] |
| 1250 nM and 921 nM | O=c1c(Br)c(OCc2ccc(F)cc2)ccn1Cc1ccc(F)cc1 [SS] |
| 1140 nM | O=c1c(Br)c(OCc2ccc(F)cc2)ccn1Cc1cccc(Cl)c1 [UU] |
| 219 nM | Cc1cc(OCc2ccccc2)c(Br)c(=O)n1Cc1ccccc1 [XX] |
| 3670 nM | CC(C)(C)c1ccc(Cn2ccc(OCc3ccccc3)c(Br)c2=O)cc1 [ZZ] |

Same assay, conditions: Table III; n = number of times assayed, n=1 if not reported; read-out: p38 Alpha IC50

| Compound | IC50 [nM] |
| --- | --- |
| O=c1c(Br)c(OCc2ccccc2)ccn1Cc1ccc(OCc2ccccc2)cc1 [KKKKK] | 1450 |
| Cc1cc(CCc2ccccc2)c(Br)c(=O)n1Cc1cccc(F)c1 [LLLLL] | 1710 |
| O=c1c(I)c(OCc2ccccc2)ccn1Cc1cccc(F)c1 [PPPPP] | 1760 |
| CCn1ccc(OCc2ccccc2)c(Br)c1=O [SSSSS] | 1990 |

The remaining lines, values ahead:

| IC50 [nM] | Compound |
| --- | --- |
| 1530 | O=c1c(Br)c(OCc2ccccc2)ccn1Cc1ccc(C(F)(F)F)cc1 [MMMMM] |
| 1690 | Cc1ccccc1COc1ccn(Cc2cccc(F)c2)c(=O)c1Br [NNNNN] |
| 1600 | Cc1cc(OCc2cccc(Cl)c2)c(Br)c(=O)n1Cc1ccccc1 [OOOOO] |
| 97 | Cc1cccc(C)c1-n1c(C)cc(OCc2c(F)cc(F)cc2F)c(Br)c1=O [PPPP] |
| 1730 | Cc1ccc(COc2ccn(Cc3ccccc3)c(=O)c2Br)cc1 [QQQQQ] |
| 199 | Cc1cccc(C)c1-n1c(C)cc(OCc2c(F)cccc2F)c(Br)c1=O [QQQQ] |
| 1850 | O=c1c(Br)c(OCc2ccccc2)ccn1Cc1ccc(F)nc1 [RRRRR] |
| 132 | Cc1cc(OCc2ccc(F)cc2F)c(Br)c(=O)n1Cc1cccnc1 [RRRR] |
| 141 | O=c1c(Br)c(OCc2ccc(F)cc2F)ccn1Cc1ccncc1 [SSSS] |
| 175 | NCc1cccc(Cn2ccc(OCc3ccc(F)cc3)c(Br)c2=O)c1 [TTTT] |
| 192 | Cc1cc(OCc2c(F)cc(F)cc2F)c(Br)c(=O)n1Cc1ccncc1 [UUUU] |
| 183 | Cc1cc(OCc2ccc(F)cc2F)c(Br)c(=O)n1Cc1ccncc1 [VVVV] |
| 260 | Cc1cccc(COc2ccn(Cc3cccc(F)c3)c(=O)c2Br)c1 [WWWW] |
| 282 | O=c1c(Br)c(OCc2ccc(F)cc2F)ccn1Cc1cccnc1 [XXXX] |
| 339 | Cc1cc(OCc2c(F)cccc2F)c(Br)c(=O)n1-c1c(Cl)cccc1Cl [YYYY] |

Test system: not given
Assay: not given
Details: not given

| melting point [°C] | Compound |
| --- | --- |
| 207.9 | Cl.O=c1c(Br)c(OCc2ccccc2)ccn1CC1CCNCC1 |
| 138.1 to 139.2 | Cl.O=c1c(Br)c(OCc2ccccc2)ccn1CC1CCCNC1 (stereo not shown) |
| 142.8 to 143.3 | Cc1ccc(Cn2ccc(OCc3ccccc3)cc2=O)cc1 [Example 1, 4-(benzyloxy)-1-(4-methylbenzyl)pyridin-2(1H)-one] |
| 150.4 to 151.2 | Cc1ccc(Cn2ccc(OCc3ccccc3)c(Br)c2=O)cc1 [Example 2, 4-(benzyloxy)-3-bromo-1-(4-methylbenzyl)pyridin-2(1H)-one] |
| 137.6 to 144.3 | O=c1c(Br)c(OCc2ccccc2)ccn1Cc1ccc(OCc2ccccc2)cc1 [Example 12, 4-(benzyloxy)-1-[4-(benzyloxy)benzyl]-3-bromopyridin-2(1H)-one] |
| 250.8 to 255.7 | O=C(O)c1ccc(Cn2ccc(OCc3ccccc3)c(Br)c2=O)cc1 [Example 15, 4-{[4-(benzyloxy)-3-bromo-2-oxopyridin-1(2H)-yl]methyl}benzoic acid] |
| 61.3 to 64.8 | CCn1ccc(OCc2ccccc2)c(Br)c1=O [Example 20, 4-(benzyloxy)-3-bromo-1-ethylpyridin-2(1H)-one] |
| 102 to 108 | O=c1c(Br)c(O)ccn1Cc1ccc(O)cc1 [Example 21, 3-bromo-4-hydroxy-1-(4-hydroxybenzyl)pyridin-2(1H)-one] |
| 61.3 to 64.8 | Cn1ccc(OCc2ccccc2)c(Br)c1=O [Example 23, 4-(benzyloxy)-3-bromo-1-methylpyridin-2(1H)-one] |
| 210.2 to 212.2 | NC(=NO)c1ccc(Cn2ccc(OCc3ccccc3)c(Br)c2=O)cc1 [Example 24, 4-{[4-(benzyloxy)-3-bromo-2-oxopyridin-1(2H)-yl]methyl}-N′-hydroxybenzenecarboximidamide] |
| 134 to 134.3 | O=c1c(Br)c(OCc2ccccc2)ccn1CCc1ccsc1 [Example 29, 4-(benzyloxy)-3-bromo-1-(2-thien-3-ylethyl)pyridin-2(1H)-one] |
| 128 to 129.5 | O=c1c(Br)c(OCc2ccccc2)ccn1CCc1cccs1 [Example 30, 4-(benzyloxy)-3-bromo-1-(2-thien-2-ylethyl)pyridin-2(1H)-one] |
| 181.5 to 181.6 | O=c1c(Br)c(OCc2ccccc2)ccn1Cc1cccc(C(F)(F)F)c1 [Example 31, 4-(benzyloxy)-3-bromo-1-[3-(trifluoromethyl)benzyl]pyridin-2(1H)-one] |
| 151.6 to 152 | O=c1cc(OCc2c(Cl)cccc2Cl)ccn1Cc1ccccc1 [Example 40, 1-Benzyl-4-[2,6-(dichlorobenzyl)oxy]pyridin-2(1H)-one] |

Source: patent US20070088033A1, “Diaryl Substituted Pyridinones” (priority 2002, published 2007)
